Source: EP4707280A1, “1,4-CINEOLE DERIVATIVE AND INTERMEDIATE THEREOF, HERBICIDE CONTAINING SAID DERIVATIVE AS ACTIVE INGREDIENT, METHOD FOR USING HERBICIDE, AND METHOD FOR PREPARING AGROCHEMICAL COMPOSITION” (HOKKO CHEMICAL INDUSTRY CO., LTD., priority 2023, dated 2024)

How the values were obtained:
Type in all cases: in vivo
[1] = tested on: Digitaria ciliaris; assay: Test Example 4: herbicidal effect test by stem and leaf treatment in upland field; details: 120 g per 10 ares, sprayed seven days after sowing, upland soil, 14 days after application; for inhibition at 1200 g/ha: Digitaria ciliaris, read-out: weed inhibition rate
[2] = tested on: Echinochloa crus-galli var. formosensis; assay: Test Example 2: herbicidal effect test by application during growth period of paddy rice; details: 120 g per 10 ares, applied seven days after sowing, flooded pots, 14 days after application; for inhibition at 1200 g/ha: Echinochloa crus-galli, read-out: weed inhibition rate
In short: (§1)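 Herbicidal effect was scored 14 days after treatment, in duplicate per concentration. Weeds sown 0–1 cm deep in puddled, fertilized paddy soil under about 3 cm of standing water received a water-diluted emulsifiable concentrate by dropper 7 days post-sowing, at 120 g a.i. per 10 ares.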

[3] = tested on: Echinochloa crus-galli; assay: Test Example 4: herbicidal effect test by stem and leaf treatment in upland field; details: 120 g per 10 ares, sprayed seven days after sowing, upland soil, 14 days after application; for inhibition at 1200 g/ha: Echinochloa crus-galli, read-out: weed inhibition rate
[4] = tested on: Echinochloa crus-galli; assay: Test Example 3: herbicidal effect test by soil application in upland field; details: 120 g per 10 ares, sprayed one day after sowing, 14 days after application; for inhibition at 1200 g/ha: Echinochloa crus-galli, read-out: weed inhibition rate
In short: (§2)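 Weed inhibition (%) was assessed 14 days after treatment, in duplicate per concentration group. Seeds had been mixed into the upper 1 cm of upland alluvial loam, and the soil surface was sprayed one day later with the diluted emulsifiable concentrate at 120 g active ingredient per 10 ares.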

[5] = tested on: Digitaria ciliaris; assay: as above; details: 120 g per 10 ares, sprayed one day after sowing, 14 days after application; for inhibition at 1200 g/ha: Digitaria ciliaris, read-out: weed inhibition rate
In short: as §2

[6] = tested on: Echinochloa crus-galli; assay: Test Example 8: herbicidal effect test by stem and leaf treatment in upland field (low dose); details: Echinochloa crus-galli; 7.5 g per 10 ares; sprayed seven days after sowing, upland soil; 14 days after application; read-out: weed inhibition rate
Method: (§3) The present test was conducted in duplicate for each chemical concentration group, and the weed inhibition rate (%) was determined 14 days after chemical application using the following formula (Math. 1). [formula]
(§4) Pots with an area of 36 cm^2 were filled with upland soil (alluvial loam), twenty seeds each of weeds of Digitaria ciliaris, and Echinochloa crus-galli were uniformly mixed with the top 1 cm layer of soil and the surface was lightly pressed down. Seven days after sowing, an emulsifiable concentrate prepared according to Formulation Example 5 using the compound shown below was diluted with water, and the diluted solution was sprayed onto the soil surface at a rate of 100 liters per 10 ares. The amount of the active ingredient to be applied was equivalent to 7.5 g per 10 ares. Fourteen days after chemical application, the herbicidal effect was evaluated according to the same criteria as in Test Example 1.

[7] = tested on: Echinochloa crus-galli var. formosensis; assay: Test Example 5: herbicidal effect test by soil application in paddy rice (low dose); details: Echinochloa crus-galli, soil, 336 h; 7.5 g per 10 ares; applied immediately after sowing, flooded pots; 14 days after application; read-out: weed inhibition rate
Method: as §3
Wagner pots with an area of […] were filled with paddy soil, followed by addition of water and incorporation of chemical fertilizer (N:P:K = 16:16:16), after which puddling was performed. After that, seeds of Echinochloa crus-galli var. formosensis, broad-leaved weeds (Monochoria vaginalis), and Scirpus juncoides were sown at a depth of 0 cm to 1 cm, 30 seeds each. Immediately after sowing, the pots were flooded and a water depth of approximately 3 cm was maintained. Subsequent management was conducted in a glass greenhouse. Immediately thereafter, an emulsifiable concentrate prepared according to Formulation Example 5 using the compound shown below was diluted with water, and a specified amount of the diluted solution was applied by dropper. The amount of the active ingredient to be applied was equivalent to 7.5 g per 10 ares. […]

[8] = tested on: Echinochloa crus-galli var. formosensis; assay: Test Example 1: herbicidal effect test by soil application in paddy rice; details: 120 g active ingredient per 10 ares, applied immediately after sowing, flooded pots, 14 days after application; for pest or weed control at 1200 g/ha: Echinochloa crus-galli, soil, 336 h, read-out: weed inhibition rate
In short: (§5)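 Flooded-pot paddy assay: sow at 0–1 cm, flood to about 3 cm, then apply diluted emulsifiable concentrate by dropper, 120 g a.i. per 10 ares; greenhouse-grown.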

[9] = tested on: Scirpus juncoides; assay: Test Example 2: herbicidal effect test by application during growth period of paddy rice; details: Schoenoplectiella juncoides; 120 g per 10 ares; applied seven days after sowing, flooded pots; 14 days after application; read-out: weed inhibition rate
In short: as §1

[10] = tested on: Echinochloa crus-galli var. formosensis; assay: Test Example 6: herbicidal effect test by application during growth period of paddy rice (low dose); details: Echinochloa crus-galli; 7.5 g per 10 ares; applied seven days after sowing, flooded pots; 14 days after application; read-out: weed inhibition rate
Method: as §3
Wagner pots with an area of […] were filled with paddy soil, followed by addition of water and incorporation of chemical fertilizer (N:P:K = 16:16:16), after which puddling was performed. After that, seeds of Echinochloa crus-galli var. formosensis, broad-leaved weeds (Monochoria vaginalis), and Scirpus juncoides were sown at a depth of 0 cm to 1 cm, 30 seeds each. Immediately after sowing, the pots were flooded and a water depth of approximately 3 cm was maintained. Subsequent management was conducted in a glass greenhouse. Seven days after sowing, an emulsifiable concentrate prepared according to Formulation Example 5 using the compound shown below was diluted with water, and a specified amount of the diluted solution was applied by dropper. The amount of the active ingredient to be applied was equivalent to 7.5 g per 10 ares. The test was conducted in duplicate for each chemical concentration group, and the herbicidal effect was evaluated 14 days after chemical application using the same criteria as in Test Example 1.

[11] = tested on: Scirpus juncoides; assay: Test Example 1: herbicidal effect test by soil application in paddy rice; details: Schoenoplectiella juncoides, soil, 336 h; 120 g active ingredient per 10 ares; applied immediately after sowing, flooded pots; 14 days after application; read-out: weed inhibition rate
In short: as §5

[12] = tested on: Digitaria ciliaris; assay: Test Example 8: herbicidal effect test by stem and leaf treatment in upland field (low dose); details: 7.5 g per 10 ares, sprayed seven days after sowing, upland soil, 14 days after application; for inhibition at 75 g/ha: Digitaria ciliaris, read-out: weed inhibition rate
Method: as §3, §4

Cc1cccc(C)c1CO[C@@H]1C[C@]2(C(C)C)O[C@@]1(C)C[C@@H]2Br [1-17, (1S,2R,4R,5S)-5-bromo-2-[(2,6-dimethylphenyl)methoxy]-1-methyl-4-isopropyl-7-oxabicyclo[2.2.1]heptane]
≥ 80%: inhibition at 1200 g/ha [1] | inhibition at 1200 g/ha [2] | inhibition at 1200 g/ha [3] | inhibition at 1200 g/ha [4] | inhibition at 1200 g/ha [5] | inhibition at 75 g/ha [6] | inhibition at 75 g/ha [7] | pest or weed control at 1200 g/ha [8]

CC#CCO[C@@H]1C[C@]2(C(C)C)O[C@@]1(C)C[C@@H]2Br [1-674, (1S,2R,4R,5S)-5-bromo-2-but-2-ynoxy-1-methyl-4-isopropyl-7-oxabicyclo[2.2.1]heptane]
≥ 80%: inhibition at 1200 g/ha [1] | inhibition at 1200 g/ha [2] | inhibition at 1200 g/ha [9] | inhibition at 1200 g/ha [3] | inhibition at 1200 g/ha [4] | inhibition at 1200 g/ha [5] | inhibition at 75 g/ha [10] | inhibition at 75 g/ha [7] | pest or weed control at 1200 g/ha [8] | pest or weed control at 1200 g/ha [11]

COc1ccc(CO[C@@H]2C[C@]3(C(C)C)O[C@@]2(C)C[C@@H]3Br)cc1 [1-686, (1S,2R,4R,5S)-5-bromo-2-[(4-methoxyphenyl)methoxy]-1-methyl-4-isopropyl-7-oxabicyclo[2.2.1]heptane]
≥ 80%: inhibition at 1200 g/ha [1] | inhibition at 1200 g/ha [3] | inhibition at 75 g/ha [6] | inhibition at 75 g/ha [12]

CC(C)[C@]12C[C@@H](OCc3ccccc3C(F)(F)F)[C@](C)(C[C@@H]1Br)O2 [1-700, (1S,2R,4R,5S)-5-bromo-l-methyl-4-isopropyl-2-[[2-(trifluoromethyl)phenyl]methoxy]-7-oxabicyclo[2.2.1]heptane]
≥ 80%: weed inhibition rate [1] | weed inhibition rate [2] | weed inhibition rate [3] | weed inhibition rate [4] | weed inhibition rate [5] | weed inhibition rate [12] | weed inhibition rate [8]

CC(C)[C@]12C[C@@H](OCc3ccccc3C(=O)O)[C@](C)(C[C@@H]1Br)O2 [1-706, 2-[[(1S,2R,4R,5S)-5-bromo-1-methyl-4-isopropyl-7-oxabicyclo[2.2.1]heptan-2-yl]oxymethyl]benzoic acid]
≥ 80%: inhibition at 1200 g/ha [1] | inhibition at 1200 g/ha [3] | inhibition at 75 g/ha [6] | inhibition at 75 g/ha [12]

CC(C)[C@]12C[C@@H](OCC3CCCCC3)[C@](C)(C[C@@H]1I)O2 [1-736, (1R,2S,4S,5R)-5-(cyclohexylmethoxy)-2-iodo-1-isopropyl-4-methyl-7-oxabicyclo[2.2.1]heptane]
≥ 80%: inhibition at 1200 g/ha [1] | inhibition at 1200 g/ha [2] | inhibition at 1200 g/ha [9] | inhibition at 1200 g/ha [3] | inhibition at 1200 g/ha [4] | inhibition at 1200 g/ha [5] | inhibition at 75 g/ha [10] | inhibition at 75 g/ha [7] | pest or weed control at 1200 g/ha [8] | pest or weed control at 1200 g/ha [11]

CCC[C@]1(O)C[C@]2(C)O[C@@]1(C(C)C)C[C@H]2OCc1ccccc1F [1-934, (1R,2S,4S,5R)-5-[(2-fluorophenyl)methoxy]-1-isopropyl-4-methyl-2-propyl-7-oxabicyclo[2.2.1]heptan-2-ol]
≥ 80%: inhibition at 1200 g/ha [1] | inhibition at 1200 g/ha [2] | inhibition at 1200 g/ha [3] | inhibition at 75 g/ha [6]

CC(C)[C@@]12C[C@H](OCc3ccccc3F)[C@@](C)(C[C@H]1Br)O2 [1-1028, (1R,2S,4S,5R)-5-bromo-2-[(2-fluorophenyl)methoxy]-1-methyl-4-isopropyl-7-oxabicyclo[2.2.1]heptane]
≥ 80%: inhibition at 1200 g/ha [1] | inhibition at 1200 g/ha [3] | inhibition at 75 g/ha [6]

CC(C)[C@@]12C[C@H](OCc3ccccc3F)[C@@](C)(C[C@H]1C)O2 [1-1221, (1R,2S,4S,5R)-2-[(2-fluorophenyl)methoxy]-1,5-dimethyl-4-isopropyl-7-oxabicyclo[2.2.1]heptane]
≥ 80%: inhibition at 1200 g/ha [1] | inhibition at 75 g/ha [12]

CC(C)[C@@]12C[C@H](OCc3ccccc3F)[C@@](C)(C[C@@H]1C)O2 [1-1222, (1R,2S,4S,5S)-2-[(2-fluorophenyl)methoxy]-1,5-dimethyl-4-isopropyl-7-oxabicyclo[2.2.1]heptane]
≥ 80%: inhibition at 1200 g/ha [3] | inhibition at 75 g/ha [6]

CC(C)[C@]12C=C[C@](C)(O1)[C@H](OCc1ccccn1)C2 [3-738, 2-[[(1S,2R,4R)-1-methyl-4-isopropyl-7-oxabicyclo[2.2.1]hept-5-en-2-yl]oxymethyl]pyridine]
≥ 80%: inhibition at 1200 g/ha [1] | inhibition at 1200 g/ha [2] | inhibition at 1200 g/ha [9] | inhibition at 1200 g/ha [3] | inhibition at 1200 g/ha [4] | inhibition at 1200 g/ha [5] | pest or weed control at 1200 g/ha [8] | pest or weed control at 1200 g/ha [11]

CC(C)[C@@]12C=C[C@@](C)(O1)[C@@H](OCc1ccccc1)C2 [3-748, (1S,4R,5S)-4-methyl-5-phenylmethoxy-1-isopropyl-7-oxabicyclo[2.2.1]hept-2-ene]
≥ 80%: inhibition at 1200 g/ha [1] | inhibition at 1200 g/ha [2] | inhibition at 1200 g/ha [9] | inhibition at 1200 g/ha [3] | inhibition at 1200 g/ha [4] | inhibition at 1200 g/ha [5] | pest or weed control at 1200 g/ha [8] | pest or weed control at 1200 g/ha [11]

Cc1ccccc1CO[C@H]1C[C@]2(C(C)C)C=C[C@@]1(C)O2 [3-749, (1S,4R,5S)-4-methyl-5-[(2-methylphenyl)methoxy]-1-isopropyl-7-oxabicyclo[2.2.1]hept-2-ene]
≥ 80%: inhibition at 1200 g/ha [1] | inhibition at 1200 g/ha [2] | inhibition at 1200 g/ha [9] | inhibition at 1200 g/ha [3] | inhibition at 1200 g/ha [4] | inhibition at 1200 g/ha [5] | pest or weed control at 1200 g/ha [8] | pest or weed control at 1200 g/ha [11]

CC(C)[C@@]12C=C[C@@](C)(O1)[C@@H](OCc1ccccc1F)C2 [3-750, (1S,4R,5S)-5-[(2-fluorophenyl)methoxy]-4-methyl-1-isopropyl-7-oxabicyclo[2.2.1]hept-2-ene]
≥ 80%: inhibition at 1200 g/ha [1] | inhibition at 1200 g/ha [2] | inhibition at 1200 g/ha [9] | inhibition at 1200 g/ha [3] | inhibition at 1200 g/ha [4] | inhibition at 1200 g/ha [5] | pest or weed control at 1200 g/ha [8] | pest or weed control at 1200 g/ha [11]
